Experimental data published in PubChem BioAssay AID434987 (Southern Research Specialized Biocontainment Screening …, 2010).
The source made the active and inactive calls. No rule for the calls is given here.

System: M. tuberculosis H37Rv growth inhibition with meropenem
Test: dose response, H37Rv, with and without meropenem (AID 434987);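 also: growth over 7 days at 37 °C before Alamar Blue read on day 9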
[1] = M. tuberculosis H37Rv growth inhibition, measured here: IC50 without meropenem
[2] = M. tuberculosis H37Rv growth inhibition, measured here: IC90 without meropenem
[3] = measured here: IC90 with meropenem

SMILES | IC50 | IC50 [1] [µM] | IC90 [2] [µM] | IC90 [3] [µM]
O=S(=O)(Nc1cccc(-c2ccc(N3CCCCCC3)nn2)c1)c1ccccc1Cl | 16 µM | > 100 | > 100 | > 25
Cc1ccc(N=Cc2c(O)ccc3ccccc23)cc1F | > 100 µM (inactive) | > 100 | > 100 | > 100
CNC(=S)N/N=C1\C(=O)c2cccc3cccc1c23 | 20.1 µM | > 100 | > 100 | > 100
CCOC(=O)Cn1c(=NC(=O)C2CC2)sc2c(C)cc(C)cc21 | 9.84 µM | > 100 | > 100 | > 100
COc1ccc(C(=O)/C=C/c2ccc(O)cc2)c(O)c1CC=C(C)C | 54.3 µM (inactive) | 64.8 | 98.4 | 75.1
O=C(Nc1nnc(-c2ccccc2SCc2ccccc2F)s1)Nc1ccccc1F | > 100 µM (inactive) | > 100 | > 100 | > 100
NC(=O)[C@@H]1CC2(CC(c3cccc(NC(=O)COc4ccc(Cl)cc4)c3)=NO2)CN1C(=O)COc1ccc(Cl)cc1 (stereo not given in full) | 75.4 µM (inactive) | > 100 | > 100 | > 100
O=C(CSCC(=O)Nc1ccccc1)N/N=C/c1c(O)ccc2ccccc12 | 31.9 µM | > 100 | > 100 | > 100
CCN(CC)c1ccc(C=N/C(C#N)=C(\N)C#N)cc1 | 16.9 µM | > 100 | > 100 | > 100
Cc1c(-c2ccccc2)cnc2c(C)cccc12 | 59.9 µM (inactive) | 95.6 | > 100 | > 100
S=c1nccc(-c2ccc3c(c2)CCO3)[nH]1 | > 100 µM (inactive) | > 100 | > 100 | > 100
NC(=S)N/N=C/c1ccc(/C=N/NC(N)=S)cc1 | 2.5 µM | > 100 | > 100 | > 100
Cc1[nH]n(-c2ccccc2)c(=O)c1/C=N/NC(=O)c1ccoc1C | 0.655 µM | > 100 | > 100 | 3.01
O=C(NN=C1CCCC1)c1cccs1 | 23.6 µM (inactive) | 50.3 | > 100 | > 100
N/C(=N\c1nc2ccccc2o1)NC(=O)c1ccccc1Br | < 0.2 µM | 28.4 | > 100 | > 100
CCC1(c2ccc(Cl)cc2)NC(=S)N(c2ccc(C)cc2)N1 (stereo not given) | > 100 µM (inactive) | > 100 | > 100 | > 100
COC(=O)CN1C(CN2CCOCC2)=Nc2ccc(Br)cc2C1c1ccccc1 (stereo not given) | > 100 µM (inactive) | > 100 | > 100 | > 100
CC(C)c1ccc(S(=O)(=O)N2CCN(C(C)C(=O)NC3CCCC3)CC2)cc1 (stereo not given) | > 100 µM (inactive) | > 100 | > 100 | > 100
CSc1ncnc2c1ccn2CC(=O)Nc1ccc(C)c(C)c1 | 8.44 µM | > 100 | > 100 | > 25
O=C(O/N=C\c1ccc(N2CCCCC2)c([N+](=O)[O-])c1)c1c(F)cccc1F | > 100 µM (inactive) | > 100 | > 100 | > 100

SMILES | IC50 | IC50 [1] [µM] | IC90 [2] [µM] | IC90 [3] [µM]
N#Cc1cc2c(nc1SCC(=O)Nc1sc3c(c1C#N)CCC3)CCCC2 | > 100 µM (inactive) | > 100 | > 100 | > 100
C/C(=N\NC(N)=S)c1ccc(-n2ccnc2)cc1 | 6.58 µM | > 100 | > 100 | > 100
CCCCOc1ccc(C(=O)Oc2cccnc2)cc1 | 19.5 µM | > 100 | > 100 | > 100
O=C(N/N=C/c1ccc(-c2cccc(C(F)(F)F)c2)o1)c1ccccc1O | 32.8 µM | > 100 | > 100 | > 100
CCCn1nc2cc(C(=O)NCCCCc3ccccc3)ccc2c1OCC | 90.1 µM (inactive) | 92.3 | > 100 | > 100
NC(=S)N/N=C/c1cccc(/C=N/NC(N)=S)c1 | 25 µM | > 100 | > 100 | > 100
NNC(=O)c1cccc(O)c1 | 9.97 µM | 79.5 | > 100 | 73.9
COc1ccc2c(C)nc(Nc3nc(-c4ccccc4)cc(=O)[nH]3)nc2c1 | > 100 µM (inactive) | > 100 | > 100 | > 100
CCCC(=O)Nc1ccc(NC(=S)NC(=O)c2cccs2)cc1 | > 100 µM (inactive) | > 100 | > 100 | > 100
CCOC(=O)c1ccccc1NC(=O)C1COc2ccccc2O1 (stereo not given) | 12.1 µM | 36.2 | > 100 | > 100
CCC(=O)NC(=S)Nc1ccc(-c2nc3ccccc3s2)cc1 | > 100 µM (inactive) | > 100 | > 100 | > 100
Cc1cc2ccccc2n1CCNC(=O)COc1ccccc1 | 30.1 µM (inactive) | 44.7 | 60.3 | 42.8
CC(=O)c1ccccc1OCCOc1ncnc2sccc12 | > 100 µM (inactive) | > 100 | > 100 | > 100
CC[C@@](C)(NS(=O)(=O)OCC(Cl)(Cl)Cl)c1ccccc1 | 50.1 µM (inactive) | 95 | > 100 | 54.8
CC(C)(C)c1nnc2sc(SCC(=O)c3cccs3)nn2c1=O | 19.3 µM | > 100 | > 100 | > 100
O=C(c1cccc(C(=O)N2CCN(c3ccc(F)cc3)CC2)c1)N1CCN(c2ccc(F)cc2)CC1 | 93.2 µM (inactive) | 95.2 | > 100 | > 100
CCn1c(=O)n(CC)c2cc(N3CCCC3)c(NC(=O)c3cc(Br)ccc3OC)cc21 | > 100 µM (inactive) | > 100 | > 100 | > 100
COC(=O)c1cc(OC)c(OC)cc1NC(=S)N1CCN(C)CC1 | > 100 µM (inactive) | > 100 | > 100 | > 100
CCCCOc1ccc(/C=N/Nc2cc(N3CCOCC3)nc(C)n2)cc1 | > 100 µM (inactive) | > 100 | > 100 | > 100
C[C@]12CC[C@@H]3c4ccc(OS(=O)(=O)O)cc4CC[C@H]3[C@@H]1CCC2=O | > 100 µM (inactive) | > 100 | > 100 | > 100

SMILES | IC50 | IC50 [1] [µM] | IC90 [2] [µM] | IC90 [3] [µM]
Cc1cccc(/C=N\NC(=O)c2csnn2)c1 | 39.5 µM | > 100 | > 100 | > 100
OC1C(O)C(O)C(O)C(O)C1O (stereo not given) | > 100 µM (inactive) | > 100 | > 100 | > 100
CCSc1nnc(NC(=O)Cn2cnc3ccccc3c2=O)s1 | > 100 µM (inactive) | > 100 | > 100 | > 100
Cc1cc(C(=O)CSc2nnnn2-c2ccccc2)c(C)n1-c1ccc2c(c1)OCO2 | 44.9 µM (inactive) | 49.7 | > 100 | 60.9
COc1cc2cnc(-c3ccsc3)c(-c3ccc(F)cc3)c2cc1OC | > 100 µM (inactive) | > 100 | > 100 | > 100
O=C(Nc1nnc(-c2ccc3c(c2)OCCO3)o1)C1CCCCC1 | 16.3 µM | 55 | > 100 | > 100
CN(C)c1ccc(/C=C/c2nc3ccccc3s2)cc1 | 8.97 µM | > 100 | > 100 | > 100
O=C(CN1CCN(c2ccccn2)CC1)Nc1ccc(Cl)c(C(F)(F)F)c1 | 58.5 µM (inactive) | 90.1 | > 100 | > 100
O=C(Oc1oc(-c2ccco2)nc1C=Nc1ccc(Cl)cc1)c1ccco1 | 15 µM | > 100 | > 100 | > 100
COc1ccc(OC(=O)c2cccc([N+](=O)[O-])c2)c(C(=O)/C=C/c2cccs2)c1 | 27.5 µM | 68.3 | > 100 | > 100
COc1ccc(OC)c(C2CC(c3c(-c4ccccc4)c4cc(Cl)ccc4[nH]c3=O)=NN2S(C)(=O)=O)c1 (stereo not given) | > 100 µM (inactive) | > 100 | > 100 | > 100
Cc1ccc2c(Cl)cc(Cl)c(OCc3c(C)noc3C)c2n1 | 25.3 µM | > 100 | > 100 | > 100
CCOC(=O)c1sc(NC(=O)CSc2n[nH]c(CC(C)C)n2)nc1C | 19.3 µM (inactive) | 46.5 | > 100 | > 100
Cc1ccccc1/C=N\NC(=O)c1csnn1 | 21.6 µM | > 100 | > 100 | > 100
COc1ccc(CCNCc2csc3nc4ccccc4n23)cc1OC | 50 µM (inactive) | 93.7 | > 100 | > 100
O=C(CC(=O)c1ccccc1)Nc1ccc2c(c1)OCCO2 | 37.2 µM (inactive) | 78.9 | > 100 | > 100
COc1ccc(NC(=O)CCc2ccccc2)cc1NC(=O)c1ccco1 | > 100 µM (inactive) | > 100 | > 100 | > 100
CC(=O)c1ccc(-n2c(C)ccc2-c2ccccc2)cc1 | 20.2 µM | 61.3 | 88.3 | > 100
O=C(NN1C(=O)c2cc(Br)ccc2NC1c1ccccc1Cl)c1ccncc1 (stereo not given) | 12.5 µM | 35 | 50.7 | 13.7
CC(=O)COc1ccc2c3c(c(=O)oc2c1C)CCCCC3 | > 100 µM (inactive) | > 100 | > 100 | > 100
